Key:
Aβ42 = Aβ42 (Homo sapiens, UniProt P05067); assay: Grating-Coupled Interferometry (GCI) binding to immobilized Aβ42
Protocol: The Grating‐Coupled Interferometry (GCI) is a widely used analytical technique for characterizing intermolecular interactions. It allows quantitative measurements of both the affinity and the kinetics of the binding events. This high sensitivity label‐free method was exploited to measure the interactions of Aβ42 with Cu‐Ph‐Pep , Ph‐Pep , and Zn‐Ph‐Pep (Figure 5S). Control experiments with pristine MCPTPyP and the peptide GPGKLVFF ( Pep ) were carried out for comparison. The calculated association and dissociation kinetic constants (kon and koff, respectively) and the thermodynamic binding constant (KD), are summarized in Table 1. The obtained values indicate that all the conjugates show good affinities with Aβ42. It is also clear from Table 1 that the peptide moiety is fundamental for the molecular recognition of the Aβ42 peptide.[48] […] Nevertheless, it is important to emphasize that the interaction with Aβ42 is primarily mediated by the peptide rather than by the porphyrin macrocycle. We next investigated whether these peptide derivatives could be employed as molecular probes for the detection of Aβ42 aggregated species. A new set of CD experiments was then carried out with Aβ42 at 20 μM both in the absence and in the presence of the porphyrin‐peptide conjugates at 1 : 1 molar ratio in the UV (195–350) and Visible (350–500) regions. […] The signal rapidly evolved toward the typical β‐sheet profile (already within 24 h) with a single minimum at 216 nm, an x‐axis intercept at 202 nm and a maximum shift at a wavelength 195 nm.[49] […] For the sake of comparison, the CD spectra of the porphyrin‐peptide conjugates at 20 μM were also recorded in the same experimental conditions, both in the far‐UV and Visible regions (Figure 6S).
The experiments were performed on a Creoptix WAVE system (Creoptix). Borate buffer (100 mM sodium borate pH 9.0, 1 M NaCl) was used for chip conditioning. Aβ42 peptide (20 μg/ml in Na Acetate pH 4.5) was immobilized on 4PCH WAVE chips (quasiplanar polycarboxylate surface; Creoptix) according to the manufacturer instructions at a final density of 1910±40 pg/mm^2. Single‐cycle sequential injections of dilution series for each Porphyrin‐Peptide conjugates in running buffer (PBS, 0.005 % Tween 20, 1 % DMSO, 0.2 mg/ml BSA) were performed at 25 °C, using a flow rate of 100 μl/min. In details, for the conjugate Cu‐Ph‐Pep , 1 : 2 dilution series starting from 200 μM were injected for 10 s association time, 45 s dissociation time, followed by a dissociation time of 600 s for the last higher concentration injection. Finally, for the conjugates Ph‐Pep and Zn‐Ph‐Pep , 1 : 2 dilution series starting from 50 μM and 100 uM, respectively, were injected for 30 s association time, 45 s dissociation time, followed by a dissociation time of 600 s for the last higher concentration injection. Blank injections were used for double referencing and a DMSO calibration curve for bulk correction. Analysis and correction of the obtained data were performed using the Creoptix WAVE control software (correction applied: X and Y offset; DMSO calibration; double referencing). Mass transport binding models with bulk correction were used to fit all experiments. All the experiments have been performed at least in triplicate.
Figure 5S. Quantitative binding kinetics of Aβ42 vs a) MCPTPyP; b) Cu-Ph-Pep; c) Ph-Pep; d) Zn-Ph-Pep; and e) Pep measured by GCI. All curves were blank subtracted. Experiments were performed in triplicate. All the quality assessments (i.e., χ2 shown in Table 1 of the main text , parameter errors, and residual plots were acceptable; the sensorgrams had sufficient curvatures an d the kinetic constant k off were within the measurable range) were fulfilled. Descriptive Statistical Analysis was employed to calculate the mean of the obtained values of k on, koff and KD as a measure of central tendency and standard deviations of the former values were computed as a measure of dispersion.
Figure 6S. […]

SH-SY5Y = assay: Live cell confocal fluorescence imaging; type: cell-based, human; details: RA-differentiated SH-SY5Y, 5 μM, 24 h, excitation 405 nm, emission 600–700 nm
Protocol: The intracellular localization of porphyrins in living cells has already been reported in the literature.[50, 51] […] The ability of our compounds to associate with cells or to be taken up by them was investigated by live cell confocal fluorescence and flow cytometry. For this purpose, we exploited the fluorescence of the porphyrin moiety. Fully differentiated SH‐SY5Y cells were exposed to 5 μM of each compound for 24 h, and then fluorescence spectra inside and outside cells were measured as described in the experimental section. The images reported in Figure 6, panel a, show the emission spectra recorded (pixel by pixel) inside cells, compared to the emission spectra recorded for control cells (no porphyrins in the growth medium). A specific porphyrin signal recorded between 600 nm and 700 nm only in the exposed sample, provides evidence that the porphyrin‐conjugated compounds are distributed within the cells. We first measured the emission spectra of each compound to confirm that the fluorescent properties measured in vitro were maintained under the conditions applied during the biological assay. Once the specific emission peak typical of porphyrins was detected inside the cells, we measured the average fluorescence intensity for each compound under study. Although modest, the signal was detected in almost every cell under the microscope stage. […]

Aβ42, sequence (P05067 672-713 limits assumed): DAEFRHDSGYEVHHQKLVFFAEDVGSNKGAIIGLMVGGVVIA

Kd (Aβ42; GCI (Creoptix WAVE), Aβ42 immobilized on 4PCH chip, PBS, 0.005 % Tween 20, 1 % DMSO, 0.2 mg/ml BSA, 25 °C, 100 μl/min, mass transport binding model, mean ± SD, at least triplicate): 215 ± 13 µM
χ^2 (average of the squared residuals, fitting confidence) (Aβ42; GCI fit quality parameter): 0.63±0.06
Compound: C[n+]1ccc(-c2c3nc(c(-c4cc[n+](C)cc4)c4ccc([nH]4)c(-c4cc[n+](C)cc4)c4nc(c(-c5ccc(C(=O)O)cc5)c5ccc2[nH]5)C=C4)C=C3)cc1.[Cl-].[Cl-].[Cl-] [MCPTPyP, 5‐(4‐carboxyphenyl)‐10,15,20‐(tri‐N‐Methyl‐4‐Pyridyl) Porphyrin trichloride, reference compound]
cell entry / intracellular distribution (SH-SY5Y): able to cross the plasma membrane and to distribute within the cells

Source: publication PMC11610669, “A Spectroscopic Study on the Amyloid‐β Interaction with Clicked Peptide‐Porphyrin Conjugates: a Vision Toward the Detection of Aβ Peptides in Aqueous Solution” (Chembiochem, 2024)
